US20230310330A1, “PEPTIDIC OLIGOMERS AND METHODS OF USING THE SAME” (BIOVENTURES, LLC, priority 2022, published 2023)
Where two headings read alike, the source gives them in different places.

Assays:
[1] = tested on: mouse 4T1 breast cancer cells
Description: Cells were incubated with varying concentrations for 48 hours, followed by CCK8 reagent. The absorbance at 450 nm was recorded.
Biocompatibility of the peptidic oligomers was characterized in a toxicity assay of the empty beta and gamma chains performed with mouse 4T1 breast cancer cells (FIG. 4). […] Cells were incubated with varying concentrations for 48 hours, followed by CCK8 reagent. The absorbance at 450 nm was recorded.

[2] = tested on: vacuolar ATPase; assay: Bafilomycin A1 block of FITC-labeled CPP translocation, flow cytometry; format: cell-based
Excerpt: FIG. 15: Bafilomycin Al blocks CPP translocation. (A) FITC-labeled B6 and G6 are easily detected by flow cytometry.
Vacuolar ATPase aids in the transport to the interior of acidic organelles and BafA1 efficiently neutralizes the luminal pH, inhibits acidic hydrolases, and impairs the fusion among acidic organelles.

[3] = tested on: 4T1 breast cancer cells; assay: In vitro cell viability assay, CellTiter-Glo, 72 hours; format: cell-based, mouse; conditions: 4T1 cells
Description: The assay was run for 72 hours with the CellTiter-Glo assay to determine cell viability.

CC(C)(C)OC(=O)N[C@@H](CNC(=O)[C@H](CNC(=O)[C@H](CNC(=O)[C@H](CNC(=O)[C@H](CNC(=O)[C@H](CN)NC(=O)OC(C)(C)C)NC(=O)OC(C)(C)C)NC(=O)OC(C)(C)C)NC(=O)OC(C)(C)C)NC(=O)OC(C)(C)C)C(=O)O [B6]
cellular toxicity (number of viable cells) [1]: do not display cellular toxicity

CO/C1=C\C(C)=C\[C@@H](C)[C@@H](O)[C@@H](C)C/C(C)=C/C=C/[C@H](OC)[C@@H]([C@@H](C)[C@@H](O)[C@H](C)[C@@]2(O)C[C@@H](O)[C@H](C)[C@@H](C(C)C)O2)OC1=O [Bafilomycin A1]
effect on FITC-labeled CPP binding and translocation (FITC signal) [2]: blocked FITC-labeled CPP
effect on FITC-labeled CPP binding and translocation (FITC signal) ([2]; listed as BafA1): blocks B6-FITC binding and translocation

CC(C)(C)OC(=O)N[C@@H](CCNC(=O)[C@H](CCNC(=O)[C@H](CCNC(=O)[C@H](CCNC(=O)[C@H](CCNC(=O)[C@H](CCN)NC(=O)OC(C)(C)C)NC(=O)OC(C)(C)C)NC(=O)OC(C)(C)C)NC(=O)OC(C)(C)C)NC(=O)OC(C)(C)C)C(=O)O [G6]
cellular toxicity (number of viable cells) [1]: do not display cellular toxicity

C[S+]([O-])CCCCN=C=S (centres unmarked) [sulforaphane, D, L sulforaphane]
concentration showing significant activity [3]: 10 mM
